Reference: paper PMC11258614 (2024)
Where a SMILES comes first, the peptide text is derived from it.

How the values were obtained:
[1] = test system: human c-Myc promoter G4 (DNA, G4) TGAGGGTGGGTAGGGTGGGTAA; test: fluorescence titration of peptide with G4; details: 30 mM sodium cacodylate pH 7.4, 0.5 mM EDTA, 25 °C, printed Ka in μM, Ka or Kd ambiguous
[2] = test system: human c-Myc promoter G4 (DNA, G4) TGAGGGTGGGTAGGGTGGGTAA; test: UV melting at 295 nm; details: 30 mM sodium cacodylate pH 7.4, 0.5 mM EDTA, 4 μM DNA, DNA:peptide 1:50, derived from two Tm

CC(C)C[C@H](NC(=O)[C@@H](N)CC(N)=O)C(=O)N[C@@H](CCC(=O)O)C(=O)N[C@@H](CCCCN)C(=O)N[C@@H](CCCCN)C(=O)N[C@@H](CCCCN)C(=O)N1CCC[C@H]1C(=O)NCC(=O)O (H-NLEKKKPG-OH)
Ka ([1]; 100 mM K+): 0.1277 ± 0.073 µM
Ka ([1]; 100 mM Na+): 0.1369 ± 0.008 µM
ΔTm ([2]; 100 mM K+): 0.9 °C
ΔTm ([2]; 100 mM Na+): 3.7 °C
